The conditions of data set [1]: organic (synthetic) chemical sunscreens, Table 1; cited from earlier work.
The nature of data set [2]: Photo-stability under solar imitating UVA+UVB irradiation. The class given is physicochemical. To be noted: absorption spectra without and after up to 40 min irradiation.
The nature of data set [3]: In vitro spectrophotometric SPF calculated by the Sayre equation (Eq. 1). The class given is physicochemical. As to the method:
Each sample (1 ml) was placed in a 1 cm quartz cell. The absorbance was measured between 250-600 nm at an interval of every 1 nm using a Varian UV/Vis spectrophotometer (Cary 50 Scan). The following parameters were measured and calculated for each sample assuming standard application to the skin—2 mg/cm^2: • the SPF values. • the critical wavelength λC • the UVA/UVB ratio 1. […]
Each sample (1 ml) was placed in a 1 cm quartz cell. The absorbance was measured between 250-600 nm at an interval of every 1 nm using a Varian UV/Vis spectrophotometer (Cary 50 Scan). The following parameters were measured and calculated for each sample assuming standard application to the skin—2 mg/cm^2: • the SPF values. • the critical wavelength λC • the UVA/UVB ratio
The SPF values in vitro were calculated according to the method described by Sayre et al., (Sayre, R M; Agin, P P; LeVee, G J; Marlowe, E. A comparison of in vivo and in vitro testing of sunscreening formulas, Photochem. Photobiol. 1979, 29, 559-566). The calculation was done using Equation 1: […]
where Ss(λ) is the spectral irradiance, Ser(λ) is the CIE erythema action spectrum and T(λ) is the transmission of the sunscreen. The values of Ss(λ) and Ser(λ) were taken from the literature (B. L. Diffey, J. Robson. A new substrate to measure sunscreen protection factors throughout the ultraviolet spectrum, J. Soc. Cosmet. Chem. 1989, 40, 127-133). […]
SPF values were calculated using Eq. 1 for sun protective cosmetics applied at 2 mg/cm^2 (standard application).
The same methods and equations as in the case of plant extracts were applied.
Solutions of sunscreens at concentrations 0.001% were prepared in duplicate and UV-visible absorption spectra were recorded over the range of 250-600 nm (FIG. 1). On the basis of these spectra, the transmission of the sunscreen (T) was found from monochromatic absorbance values at wavelength λ: T=10^−A(λ).
The SPF in vitro was calculated according to the method described by Sayre et al., (Sayre, R M; Agin, P P; LeVee, G J; Marlowe, E. A comparison of in vivo and in vitro testing of sunscreening formulas, Photochem. Photobiol. 1979, 29, 559-566) following equation 1: […]
where Ss(λ) is the spectral irradiance, Ser(λ) the CIE erythema action spectrum and T(λ) the trans-mission of the sunscreen. Data for Ss(λ) and Ser(λ) are available in the literature (B. L. Diffey, J. Robson. A new substrate to measure sunscreen protection factors throughout the ultraviolet spectrum, J. Soc. Cosmet. Chem. 1989, 40, 127-133).
The SPF values were calculated using Eq 1 with the application conditions 2 mg/cm^2 (Standard application recommended by the European Agency).
The SPF value for lotions were calculated using Eq. 1 for three application conditions at 2 mg/cm^2 (standard application), 2.5 mg/cm^2 and 3 mg/cm^2. In the same Table 22, critical wavelength and the UVA/UVB ratios are shown.

A short description of data set [4]: Critical wavelength (λC) from absorption spectra (Eq. 2). The format is physicochemical. To be noted: for critical wavelength: chemical sunscreen, no concentration stated. On the procedure:
The Critical Wavelength λC is the wavelength, where the area under the absorbance spectrum for the irradiated product from 290 nm to λC is equal to 90% of the integral value of the absorbance spectrum from 290 to 400 nm and was calculated using Eq. 2:
where A (λ)=monochromatic absorbance values at wavelength λ. The critical wavelength was determined for all samples in order to assess a degree of UVA protection. In cases where the critical wavelength is lower than 370 nm, the protection from UVA is less evident.
The Critical Wavelength λC value for the test product was defined as that wavelength where the area under the absorbance spectrum of the sample from 290 nm to λC is 90% of the integral of the absorbance spectrum from 290 to 400 nm and is calculated using Eq. 2:
[formula] • A(λ)=monochromatic absorbance values at wavelength λ

The nature of data set [5]: UVA/UVB ratio from absorption spectra (Eq. 3) and Boots UVA Star Rating. The class given is physicochemical. As to the method:
Critical Wavelength (λC) and the UVA/UVB ratios were also calculated from the absorption spectra and were collected in Table 2. […] According to these International indications, aqueous solutions of Haberlea rhodopensis with different concentrations of myconoside can be attributed to the group of good protection (2 UVA Star Rating).
In order to further characterize solutions as skin photo-protectors from UVA, the UVA/UVB ratio was calculated using Eq. 3: […]
In order to characterize the ability of creams to protect skin against UVA the UVA/UVB ratio was calculated using Eq. 3: […]

A short description of data set [6]: SPF calculated by modified Sayre method. The class given is physicochemical. An excerpt:
In the following Table 20, there are SPF values obtained in vitro spectrophotometrically, which have been calculated by a classical Sayre method (Sayre, R M; Agin, P P; LeVee, G J; Marlowe, E. A comparison of in vivo and in vitro testing of sunscreening formulas, Photochem. Photobiol. 1979, 29, 559-566) and modified Sayre method, which gives results similar to those obtained in the in vivo tests recommended by COLIPA.
• (1) For water insoluble chemical filters, the modified Sayre method gives results close to those calculated by Simulator-Calculator (BASF) and the in vivo tests. The Simulator-Calculator uses the modified Sayre method assuming an exponentiation equal to 0.827 (X^0.827). • (2) For water soluble natural filters, the same modified Sayre method would give results close to those obtained by the in vivo tests (predicted by Simulator-Calculator). Examples of Cosmetic Compositions with Fully Natural Sun Protective Factors • 1. Sun protective lotion SPF 50+, high UV-A protection • 2. Sun protective cream SPF 50+, high UV-A protection • 3. Sun protective serum for pregnant and milking women SPF 50+, high UV-A protection • 4. Sun protective milk for babies SPF 50+, high UV-A protection • 5. Sun protective lotion SPF 20-30, high UV-A protection for people with highly sensitive skin E. Analysis of Sun Protective Parameters of Two Lotions and Cream Containing Lippia citriodora Extract with 40% of Verbascoside.

Setting [7] is: UV filter 0.5% in sun protective cosmetic (Table 20).
Setting [8] is: UV filter 1.0% in sun protective cosmetic (Table 20).
[9] abbreviates: UV filter 2.5% in sun protective cosmetic (Table 20).
[10] abbreviates: UV filter 5% in sun protective cosmetic (Table 20).
Setting [11] is: chemical UV filter 0.5% in sun protective solution (Tables 12-19).
[12] abbreviates: chemical UV filter 1% in sun protective solution (Tables 12-19).
The mark [13] stands for this setting: chemical UV filter 2.5% in sun protective solution (Tables 12-19).
The mark [14] stands for this setting: chemical UV filter 5% in sun protective solution (Tables 12-19).
Where [15] appears, read: chemical UV filter 0.5% in sun protective solution.
[16] abbreviates: chemical UV filter 1% in sun protective solution.
[17] abbreviates: chemical UV filter 2.5% in sun protective solution.
The mark [18] stands for this setting: chemical UV filter 5% in sun protective solution.
The mark [19] stands for this setting: chemical UV filter 10% in sun protective solution.
[20] abbreviates: UV filter 0.5% in sun protective cosmetic.
[21] abbreviates: UV filter 1.0% in sun protective cosmetic.
[22] abbreviates: UV filter 2.5% in sun protective cosmetic.
The mark [23] stands for this setting: UV filter 5% in sun protective cosmetic.

Data on 10 compounds can be found in US20250032569A1, “COMPOSITION, IN PARTICULAR COSMETIC FORMULATION, COMPRISING A VERBASCOSIDE EXTRACT” (MEDENA AG, priority 2021, published 2025).

Regarding `CC(C)(C)CC(C)(C)c1cc(Cc2cc(C(C)(C)CC(C)(C)C)cc(-n3nc4ccccc4n3)c2O)c(O)c(-n2nc3ccccc3n2)c1` [Tinosorb M], in data set [1], the “Absorbs UV-B” value is recorded as “UV-B”.

For `CC1(C)C2CCC1(CS(=O)(=O)O)C(=O)C2=Cc1ccc(C=C2C(=O)C3(CS(=O)(=O)O)CCC2C3(C)C)cc1` [Mexoryl SX], the “Absorbs UV-A” value in data set [1] is “UV-A”.

Turning to `CCCCC(CC)COc1ccc(-c2nc(-c3ccc(OC)cc3)nc(-c3ccc(OCC(CC)CCCC)cc3O)n2)c(O)c1` (stereo not shown) [Tinosorb S], in data set [1], the “Absorbs UV-A” value is “UV-A” and the “Absorbs UV-B” value is recorded as “UV-B”.

As to `CCCCC(CC)COC(=O)C=Cc1ccc(OC)cc1` (stereo not shown) [octyl methoxycinnamate, Ethylhexyl methoxycinnamate], the “Photo-stability to solar imitating UVA+UVB irradiation” value in data set [2] is given as “HIGHLY unstable”.

As to `CCCCC(CC)COC(=O)C(C#N)=C(c1ccccc1)c1ccccc1` (stereo not shown) [octocrylene, Octocrylene], the “SPF values calculated by the Sayre equation” value in data set [3] (setting [7]) was 1.9; in data set [3] (setting [8]) it was 4; in data set [3] (setting [9]), 13; in data set [3] (setting [10]), 26.5; in data set [3] (UV filter 10% in sun protective cosmetic (Table 20)), 36.8. In addition, the SPF values in data set [3] (setting [11]) was 10; in data set [3] (setting [12]), 25; in data set [3] (setting [13]), 42; in data set [3] (setting [14]), 61; in data set [3] (chemical UV filter 10% in sun protective solution (Tables 12-19)), 90. Moreover, the “Critical wavelength (λC)” value in data set [4] (setting [15]), in data set [4] (setting [16]), in data set [4] (setting [17]), in data set [4] (setting [18]) and in data set [4] (setting [19]) was 342 nm throughout. The same compound showed a critical wavelength in data set [4] of 342 nm. Further, the UVA/UVB in data set [5] (setting [15]), in data set [5] (setting [16]), in data set [5] (setting [17]), in data set [5] (setting [18]) and in data set [5] (setting [19]) was 0.22 in each case. Also, the “ratio UVA/UVB” value in data set [5] (chemical sunscreen, no concentration stated) was 0.22. Also, the “SPF values calculated by Modified Sayre” value was 1.6 in data set [6] (setting [20]); 2.6 in data set [6] (setting [21]); 4.7 in data set [6] (setting [22]); 7.4 in data set [6] (setting [23]); 11.7 in data set [6] (UV filter 10% in sun protective cosmetic).

Regarding `CCCCC(CC)COC(=O)c1ccc(Nc2nc(Nc3ccc(C(=O)NC(C)(C)C)cc3)nc(Nc3ccc(C(=O)OCC(CC)CCCC)cc3)n2)cc1` (stereo not shown) [Uvasorb HEB], the “Absorbs UV-B” value in data set [1] is recorded as “UV-B”.

With “butylmethoxydibenzoylmethane [avobenzone]”, the “SPF values calculated by the Sayre equation” value is on record as 1.5 in data set [3] (setting [7]), 2.0 in data set [3] (setting [8]), 6.1 in data set [3] (setting [9]) and 32 in data set [3] (setting [10]). The SPF values in data set [3] (setting [11]) is 1.9; in data set [3] (setting [12]), 3.0; in data set [3] (setting [13]), 19; in data set [3] (setting [14]), 297. In addition, the “Critical wavelength (λC)” value in data set [4] (setting [15]), in data set [4] (setting [16]), in data set [4] (setting [17]) and in data set [4] (setting [18]) was 385 nm each time. In data set [4], this compound came in with a critical wavelength of 385 nm. Besides, the “Photo-stability to solar imitating UVA+UVB irradiation” value in data set [2] was “HIGHLY unstable”. For the same compound, the “SPF values calculated by Modified Sayre” value was 1.5 in data set [6] (setting [20]), 2.1 in data set [6] (setting [21]), 3.2 in data set [6] (setting [22]) and 4.4 in data set [6] (setting [23]).

`Cc1cc(CC(C)C[Si](C)(O[Si](C)(C)C)O[Si](C)(C)C)c(O)c(-n2nc3ccccc3n2)c1` (stereo not shown) [Mexoryl XL]: in data set [1], the “Absorbs UV-A” value is on record as “UV-A” and the “Absorbs UV-B” value is on record as “UV-B”.

With `O=S(=O)([O-])c1cc(S(=O)(=O)O)cc2[nH]c(-c3ccc(-c4nc5c(S(=O)(=O)[O-])cc(S(=O)(=O)O)cc5[nH]4)cc3)nc12.[Na+].[Na+]` [Neoheliopan AP], the “Absorbs UV-A” value in data set [1] is reported as “UV-A”.

In the case of `CCCCCCOC(=O)c1ccccc1C(=O)c1ccc(N(CC)CC)cc1O` [Uvinul A plus], the “Absorbs UV-A” value in data set [1] is listed as “UV-A”.
